Measurements reported in publication PMC11975020, “Chemoproteomic analysis reveals RECQL4 as a mediator of nitroalkene-dependent double-strand break repair inhibition in cancer” (Research Square, 2025).

Target: T1, RECQL4 (Homo sapiens, UniProt O94761)
T1 construct: RECQL4^449–1111 (lacking the N-terminus)
T1 sequence (O94761 449-1111): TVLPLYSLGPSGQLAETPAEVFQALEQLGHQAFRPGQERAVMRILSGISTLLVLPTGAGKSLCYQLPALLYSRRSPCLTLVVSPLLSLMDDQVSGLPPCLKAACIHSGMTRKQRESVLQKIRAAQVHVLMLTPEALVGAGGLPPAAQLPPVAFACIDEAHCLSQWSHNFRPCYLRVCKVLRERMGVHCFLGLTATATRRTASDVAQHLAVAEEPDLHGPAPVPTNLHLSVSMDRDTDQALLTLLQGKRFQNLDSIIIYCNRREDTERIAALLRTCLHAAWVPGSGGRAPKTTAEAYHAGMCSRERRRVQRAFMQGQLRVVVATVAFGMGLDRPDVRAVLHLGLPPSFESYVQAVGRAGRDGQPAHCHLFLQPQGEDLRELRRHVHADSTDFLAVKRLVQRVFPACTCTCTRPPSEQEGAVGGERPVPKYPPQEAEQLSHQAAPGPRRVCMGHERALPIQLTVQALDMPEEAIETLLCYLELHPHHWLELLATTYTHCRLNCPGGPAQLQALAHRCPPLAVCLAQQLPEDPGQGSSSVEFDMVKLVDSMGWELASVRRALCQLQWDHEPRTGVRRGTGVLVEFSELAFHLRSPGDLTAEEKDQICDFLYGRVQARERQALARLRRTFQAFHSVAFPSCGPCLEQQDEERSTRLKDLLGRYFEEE
Assay: gel-based helicase unwinding assay with purified protein; confirmed by real-time fluorescence helicase assay; LC-MS/MS adduct at Cys1052 in U2OS cells
Format: biochemical

IC50: 252 nM
Structure (SMILES): CCCCCCCC/C(=C\CCCCCCCC(=O)O)[N+](=O)[O-] [OA-NO2]
